Assay results as given in ChEMBL document CHEMBL3885881, “DrugMatrix”.

Species on record: Rattus norvegicus
Experiment: DrugMatrix - Regimen: Daily Repeat
Assay type: toxicity, organism-based, Sprague-Dawley
Set-up: regimen Daily Repeat, gender Male, age 6-8 weeks
Conditions: in vivo, po, route oral GAVAGE, vehicle .5 % CMC; for BASOPHIL / EOSINOPHIL / ERYTHROCYTE COUNT / HEMATOCRIT / HEMOGLOBIN / LEUKOCYTE COUNT / LYMPHOCYTE / MEAN CORPUSCULAR HEMOGLOBIN / MEAN CORPUSCULAR HEMOGLOBIN CONCENTRATION / MEAN CORPUSCULAR VOLUME / MONOCYTE / NEUTROPHIL / PLATELET COUNT: tissue Blood; for ALANINE AMINOTRANSFERASE / ALBUMIN / ALKALINE PHOSPHATASE / ASPARTATE AMINOTRANSFERASE / BLOOD UREA NITROGEN / CARBON DIOXIDE / CHLORIDE / CHOLESTEROL / CREATINE PHOSPHOKINASE / CREATININE / GLUCOSE / LACTATE DEHYDROGENASE / LIPASE / PHOSPHORUS / POTASSIUM / SODIUM / TOTAL BILIRUBIN / TOTAL PROTEIN / URIC ACID: tissue Plasma
[1] = 0 mg/kg, 72 h, dose level Control, time 3 day
[2] = 0 mg/kg, 120 h, dose level Control, time 5 day
[3] = 47 mg/kg, 72 h, dose level Low, time 3 day
[4] = 47 mg/kg, 120 h, dose level Low, time 5 day
[5] = 1200 mg/kg, 72 h, dose level High, time 3 day
[6] = 1200 mg/kg, 120 h, dose level High, time 5 day

## Nc1ccn([C@H]2CC[C@@H](CO)O2)c(=O)n1 [ZALCITABINE]
[1]
  BASOPHIL: 0.17%
  EOSINOPHIL: 0.83%
  ERYTHROCYTE COUNT: 7.2 x10E6/uL
  HEMATOCRIT: 43.13%
  HEMOGLOBIN: 14.63 G/DL
  LEUKOCYTE COUNT: 9.05 x10E3/uL
  LYMPHOCYTE: 75.17%
  MEAN CORPUSCULAR HEMOGLOBIN: 20.35 pg
  MEAN CORPUSCULAR HEMOGLOBIN CONCENTRATION: 33.95 G/DL
  MEAN CORPUSCULAR VOLUME: 59.93 fL
  MONOCYTE: 2.83%
  NEUTROPHIL: 21.17%
  PLATELET COUNT: 1093.17 x10E3/uL
  ALANINE AMINOTRANSFERASE: 49.17 u/L
  ALBUMIN: 4.33 G/DL
  ALKALINE PHOSPHATASE: 366.5 u/L
  ASPARTATE AMINOTRANSFERASE: 86.33 u/L
  BLOOD UREA NITROGEN: 17 mg/dL
  CARBON DIOXIDE: 24.17 mmol/L
  CHLORIDE: 102.83 MEQ/L
  CHOLESTEROL: 78.33 mg/dL
  CREATINE PHOSPHOKINASE: 320.83 u/L
  CREATININE: 0.3 mg/dL
  GLUCOSE: 140.83 mg/dL
  LACTATE DEHYDROGENASE: 210 u/L
  LIPASE: 9.33 u/L
  PHOSPHORUS: 9.12 mg/dL
  POTASSIUM: 5.65 MEQ/L
  SODIUM: 144.17 MEQ/L
  TOTAL BILIRUBIN: 0.1 mg/dL
  TOTAL PROTEIN: 6.3 G/DL
  URIC ACID: 1.03 mg/dL
[2]
  BASOPHIL: 0.17%
  EOSINOPHIL: 1%
  ERYTHROCYTE COUNT: 7.02 x10E6/uL
  HEMATOCRIT: 43.12%
  HEMOGLOBIN: 14.18 G/DL
  LEUKOCYTE COUNT: 9.63 x10E3/uL
  LYMPHOCYTE: 72%
  MEAN CORPUSCULAR HEMOGLOBIN: 20.25 pg
  MEAN CORPUSCULAR HEMOGLOBIN CONCENTRATION: 32.95 G/DL
  MEAN CORPUSCULAR VOLUME: 61.43 fL
  MONOCYTE: 2.67%
  NEUTROPHIL: 24.5%
  PLATELET COUNT: 1028.5 x10E3/uL
  ALANINE AMINOTRANSFERASE: 42.5 u/L
  ALBUMIN: 4.2 G/DL
  ALKALINE PHOSPHATASE: 300.33 u/L
  ASPARTATE AMINOTRANSFERASE: 87.67 u/L
  BLOOD UREA NITROGEN: 17 mg/dL
  CARBON DIOXIDE: 24.33 mmol/L
  CHLORIDE: 99 MEQ/L
  CHOLESTEROL: 70.67 mg/dL
  CREATINE PHOSPHOKINASE: 891.33 u/L
  CREATININE: 0.3 mg/dL
  GLUCOSE: 139.67 mg/dL
  LACTATE DEHYDROGENASE: 289.83 u/L
  LIPASE: 8.83 u/L
  PHOSPHORUS: 9.5 mg/dL
  POTASSIUM: 5.55 MEQ/L
  SODIUM: 139 MEQ/L
  TOTAL BILIRUBIN: 0.0833 mg/dL
  TOTAL PROTEIN: 6.1 G/DL
  URIC ACID: 0.98 mg/dL
[3]
  BASOPHIL: 0.33%
  EOSINOPHIL: 1.67%
  ERYTHROCYTE COUNT: 7.03 x10E6/uL
  HEMATOCRIT: 42.67%
  HEMOGLOBIN: 14.33 G/DL
  LEUKOCYTE COUNT: 10.43 x10E3/uL
  LYMPHOCYTE: 70.67%
  MEAN CORPUSCULAR HEMOGLOBIN: 20.4 pg
  MEAN CORPUSCULAR HEMOGLOBIN CONCENTRATION: 33.57 G/DL
  MEAN CORPUSCULAR VOLUME: 60.7 fL
  MONOCYTE: 2.33%
  NEUTROPHIL: 25%
  PLATELET COUNT: 1049.33 x10E3/uL
  ALANINE AMINOTRANSFERASE: 49.33 u/L
  ALBUMIN: 4.27 G/DL
  ALKALINE PHOSPHATASE: 380.5 u/L
  ASPARTATE AMINOTRANSFERASE: 78.67 u/L
  BLOOD UREA NITROGEN: 18.33 mg/dL
  CARBON DIOXIDE: 22.33 mmol/L
  CHLORIDE: 101 MEQ/L
  CHOLESTEROL: 74.67 mg/dL
  CREATINE PHOSPHOKINASE: 442.33 u/L
  CREATININE: 0.27 mg/dL
  GLUCOSE: 147 mg/dL
  LACTATE DEHYDROGENASE: 216.67 u/L
  LIPASE: 9 u/L
  PHOSPHORUS: 9.3 mg/dL
  POTASSIUM: 5.95 MEQ/L
  SODIUM: 143.67 MEQ/L
  TOTAL BILIRUBIN: 0.1 mg/dL
  TOTAL PROTEIN: 6.27 G/DL
  URIC ACID: 0.87 mg/dL
[4]
  BASOPHIL: 0.33%
  EOSINOPHIL: 1%
  ERYTHROCYTE COUNT: 7.41 x10E6/uL
  HEMATOCRIT: 44.03%
  HEMOGLOBIN: 14.73 G/DL
  LEUKOCYTE COUNT: 11.23 x10E3/uL
  LYMPHOCYTE: 81.67%
  MEAN CORPUSCULAR HEMOGLOBIN: 19.83 pg
  MEAN CORPUSCULAR HEMOGLOBIN CONCENTRATION: 33.4 G/DL
  MEAN CORPUSCULAR VOLUME: 59.43 fL
  MONOCYTE: 2.33%
  NEUTROPHIL: 15.67%
  PLATELET COUNT: 1184 x10E3/uL
  ALANINE AMINOTRANSFERASE: 46 u/L
  ALBUMIN: 4.43 G/DL
  ALKALINE PHOSPHATASE: 323 u/L
  ASPARTATE AMINOTRANSFERASE: 95.67 u/L
  BLOOD UREA NITROGEN: 15.67 mg/dL
  CARBON DIOXIDE: 22.33 mmol/L
  CHLORIDE: 98.33 MEQ/L
  CHOLESTEROL: 68 mg/dL
  CREATINE PHOSPHOKINASE: 672 u/L
  CREATININE: 0.3 mg/dL
  GLUCOSE: 129 mg/dL
  LACTATE DEHYDROGENASE: 673.67 u/L
  LIPASE: 8.67 u/L
  PHOSPHORUS: 9.57 mg/dL
  POTASSIUM: 5.77 MEQ/L
  SODIUM: 140.67 MEQ/L
  TOTAL BILIRUBIN: 0.1 mg/dL
  TOTAL PROTEIN: 6.4 G/DL
  URIC ACID: 1.23 mg/dL
[5]
  BASOPHIL: 0.33%
  EOSINOPHIL: 1%
  ERYTHROCYTE COUNT: 7.16 x10E6/uL
  HEMATOCRIT: 42.4%
  HEMOGLOBIN: 14.27 G/DL
  LEUKOCYTE COUNT: 9.77 x10E3/uL
  LYMPHOCYTE: 80.33%
  MEAN CORPUSCULAR HEMOGLOBIN: 20 pg
  MEAN CORPUSCULAR HEMOGLOBIN CONCENTRATION: 33.73 G/DL
  MEAN CORPUSCULAR VOLUME: 59.27 fL
  MONOCYTE: 2.33%
  NEUTROPHIL: 16.33%
  PLATELET COUNT: 1274 x10E3/uL
  ALANINE AMINOTRANSFERASE: 63.67 u/L
  ALBUMIN: 4.3 G/DL
  ALKALINE PHOSPHATASE: 291.67 u/L
  ASPARTATE AMINOTRANSFERASE: 78 u/L
  BLOOD UREA NITROGEN: 15.33 mg/dL
  CARBON DIOXIDE: 22.67 mmol/L
  CHLORIDE: 103.67 MEQ/L
  CHOLESTEROL: 79 mg/dL
  CREATINE PHOSPHOKINASE: 509 u/L
  CREATININE: 0.3 mg/dL
  GLUCOSE: 141.33 mg/dL
  LACTATE DEHYDROGENASE: 255.33 u/L
  LIPASE: 9.33 u/L
  PHOSPHORUS: 10.23 mg/dL
  POTASSIUM: 5.83 MEQ/L
  SODIUM: 146.33 MEQ/L
  TOTAL BILIRUBIN: 0.1 mg/dL
  TOTAL PROTEIN: 6.17 G/DL
  URIC ACID: 1.33 mg/dL
[6]
  BASOPHIL: 0%
  EOSINOPHIL: 0.67%
  ERYTHROCYTE COUNT: 7.45 x10E6/uL
  HEMATOCRIT: 45%
  HEMOGLOBIN: 15 G/DL
  LEUKOCYTE COUNT: 9.43 x10E3/uL
  LYMPHOCYTE: 80%
  MEAN CORPUSCULAR HEMOGLOBIN: 20.1 pg
  MEAN CORPUSCULAR HEMOGLOBIN CONCENTRATION: 33.37 G/DL
  MEAN CORPUSCULAR VOLUME: 60.37 fL
  MONOCYTE: 2.33%
  NEUTROPHIL: 16.33%
  PLATELET COUNT: 957.67 x10E3/uL
  ALANINE AMINOTRANSFERASE: 49.33 u/L
  ALBUMIN: 4.1 G/DL
  ALKALINE PHOSPHATASE: 291.67 u/L
  ASPARTATE AMINOTRANSFERASE: 101.33 u/L
  BLOOD UREA NITROGEN: 15.33 mg/dL
  CARBON DIOXIDE: 22.67 mmol/L
  CHLORIDE: 99.67 MEQ/L
  CHOLESTEROL: 63.33 mg/dL
  CREATINE PHOSPHOKINASE: 865 u/L
  CREATININE: 0.3 mg/dL
  GLUCOSE: 138 mg/dL
  LACTATE DEHYDROGENASE: 744.67 u/L
  LIPASE: 8.33 u/L
  PHOSPHORUS: 9.43 mg/dL
  POTASSIUM: 5.67 MEQ/L
  SODIUM: 141 MEQ/L
  TOTAL BILIRUBIN: 0.1 mg/dL
  TOTAL PROTEIN: 6.23 G/DL
  URIC ACID: 0.9 mg/dL
